Experimental data reported in paper PMC10892375, “Determination of the Cannabinoid CB1 Receptor’s Positive Allosteric Modulator Binding Site through Mutagenesis Studies” (Pharmaceuticals, 2024).

Assays:
Assay type in all cases: cell-based
[1] = biological target: T1, WT hCB1 (Homo sapiens, UniProt P21554); test: pIRES G protein dissociation BRET assay, WT hCB1; settings: for G protein dissociation, AUC of 10 μM compound (maximal response): 10 μM ligand alone
T1 construct: expressed in transfected cells; host or cells: HEK293
Experimental: (§1) Mutagenesis studies using the pIRES G protein dissociation assay were performed using human embryonic kidney 293 (HEK293) wild-type cells transiently transfected with pplss-3HA-hCB1 [31] or modified receptor. All cells were cultured in Dulbecco’s Modified Eagle’s Medium (DMEM) supplemented with 10% fetal bovine serum (FBS), grown in […] vented-cap flasks, and maintained in a 37° C incubator at 5% CO2.
(§2) Dissociation of the G protein heterotrimer, specifically Gαi1, Gβ1, and Gγ2, was investigated using a bioluminescence resonance energy transfer (BRET) assay with the pIRES biosensor first described by and adapted by.
(§3) Briefly, 3 × 10^6 WT HEK293 cells were seeded into 10 cm culture dishes (Corning, Corning, NY, USA; one dish for the control receptor and one for each modified receptor) and incubated at 37 °C for 24 h to gain 50–60% confluency. Culture medium was then replaced and transfection mixtures containing 3 μg pIRES vector and 1 μg receptor (either pplss-hCB1 or modified receptor) were prepared (4 μg total DNA). Plasmids were initially diluted in sterile Milli-Q water before being diluted in OptiMEM reduced serum medium (Thermo Fisher Scientific, Waltham, MA, USA) and combined with […] polyethylenimine (PEI)-max (1:9 DNA:PEI-max ratio) and incubated at room temperature for 20 min. Transfection mixtures were then added to cells via dropwise addition, and cells were incubated at 37 °C for 24 h. Transfected cells were lifted and plated at 50,000 cells/well into poly-d-lysine (PDL; Sigma-Aldrich) coated white 96-well CulturPlates (PerkinElmer, Waltham, MA, USA) and incubated for a further 24 h at 37 °C.
To assay, the culture medium was aspirated and cells were washed with phosphate buffered saline (PBS) and replaced with BRET assay medium (phenol red free DMEM containing 25 mM HEPES and supplemented with 1 mg/mL bovine serum albumin; BSA, MP Biomedicals, Auckland, New Zealand) for 30 min prior to drug addition (serum starve). Drugs were prepared at 10 × concentration in BRET assay medium, combined in a polypropylene V-bottom plate, and incubated at 37° C prior to drug stimulation. Coelenterazine-h (Nanolight Technology, Prolume Ltd, Pinetop, AZ, USA) was prepared at 10 × concentration in BRET assay medium (final concentration 5 μM) and dispensed to cells immediately prior to drug stimulation. Plates were transferred to the LUMIstar Omega plate reader (BMG Labtech GmbH, Ortenburg, BW, Germany) and luminescence (475 and 535 nm) was detected simultaneously in the dark with BRET1 filters for approximately 5 min to establish a baseline BRET ratio. Drugs were added to cells, plates were returned to the LUMIstar and luminescence was detected for a further 25 min. BRET ratios (475/535) were calculated in Omega MARS software v 3.32, exported, and data were analysed using GraphPad Prism v8. Baseline correction was performed using an in-built function in GraphPad Prism, subtracting vehicle BRET ratios from matched conditions. Area under the curve (AUC) analysis was performed in GraphPad Prism using an in-built function to obtain concentration response data.
All data analysis was performed using GraphPad Prism v8. Sigmoidal concentration series were generated by performing AUC analysis and fit using three-parameter nonlinear regression curves. Statistical analyses were performed using data interpolated from nonlinear regression curves using parameters derived from five independent biological replicates. Both one- and two-way repeated measures ANOVA and paired t-tests were used where appropriate (specified in-text), and posthoc tests, specified in text, were performed when significance was reached (p < 0.05). Time course data presented in this manuscript are pooled data (n = 5) and expressed as mean ± SEM. Concentration response data are representative, data expressed as mean ± SD from technical triplicates, to avoid misestimation of parameters from combined/pooled data.

[2] = biological target: T2, hCB1 mutant Y172A^2.59 (Homo sapiens, UniProt P21554, Y172A); test: pIRES G protein dissociation BRET assay, Y172A mutant; settings: for G protein dissociation, AUC of 10 μM compound (maximal response): 10 μM ligand alone
T2 construct: expressed in transfected cells; host or cells: HEK293
Experimental: as §1
(§4) Mutants of pplss-3HA-hCB1 (WT, pEF-V4-HisA (pEF4a) construct) were generated using a modified QuikChange® (Stratagene, San Diego, CA, USA) site-directed mutagenesis approach using KAPA HiFi Hotstart Polymerase (KAPA Biosystems, Roche, Basel, Switzerland). Briefly, single-stranded primers used to modify one or two base pairs within the target amino acid using PCR were purchased from Integrated DNA Technologies (IDT, Coralville, IA, USA). All pplss-hCB1 mutants were generated using the pplss-3HA-hCB1 pEF4a as parental DNA. PCR products were generated using recommended cycling conditions and treated with Dpn1 (New England Biolabs, Ipswich, MA, USA) overnight at 37° C to digest methylated parental DNA. PCR products were electrophoresed and run on an agarose gel (1% (w.v^−1) agarose, HydraGene, Piscataway, NJ, USA) containing 0.25 μg/mL ethidium bromide (Sigma-Aldrich, St. Louis, MO, USA). Gels were run in 40 mM TRIS-acetate buffer containing […] (pH 8.3) at 100 V for 30 min, maximum current and included a 1kb+ DNA ladder (Invitrogen, Thermo Fisher Scientific, Carlsbad, CA, USA) for reference. Gels were imaged using an UVTech Alliance Q9 Mini transilluminator (UVTech Alliance, Cambridge, UK). Digested products were then used to transform NEB 5α competent E. coli cells in accordance with manufacturer’s instructions. Briefly, transformed PCR products were grown overnight on 8.5 mL Luria Broth agar plates (containing 100 μg/mL ampicillin) at 37° C. Single bacterial colonies were picked and inoculated in Luria Broth (containing 100 μg/mL ampicillin) and grown overnight in a shaking incubator at 37° C. Plasmids were then harvested and purified using a Qiagen miniprep kit (Qiagen, Hilden, Germany) and validated using sequencing (Genetics Analysis Service, University of Otago, Dunedin, New Zealand).
as §2, §3
(§5) To assay, the culture medium was aspirated and cells were washed with phosphate buffered saline (PBS) and replaced with BRET assay medium (phenol red free DMEM containing 25 mM HEPES and supplemented with 1 mg/mL bovine serum albumin; BSA, MP Biomedicals, Auckland, New Zealand) for 30 min prior to drug addition (serum starve). Drugs were prepared at 10 × concentration in BRET assay medium, combined in a polypropylene V-bottom plate, and incubated at 37° C prior to drug stimulation.

[3] = biological target: T3, hCB1 mutant R148A^12.51 (Homo sapiens, UniProt P21554, R148A); test: pIRES G protein dissociation BRET assay, R148A mutant; settings: for G protein dissociation, AUC of 10 μM compound (maximal response): 10 μM ligand alone
T3 construct: expressed in transfected cells; host or cells: HEK293
Experimental: as §1, §4, §2, §3, §5

[4] = biological target: T4, hCB1 mutant F289A^5.53 (Homo sapiens, UniProt P21554, F289A); test: pIRES G protein dissociation BRET assay, F289A mutant; settings: 10 μM ligand alone
T4 construct: expressed in transfected cells; host or cells: HEK293
Experimental: as §1, §4, §2, §3, §5

[5] = biological target: T5, hCB1 mutant L404A^8.50 (Homo sapiens, UniProt P21554, L404A); test: pIRES G protein dissociation BRET assay, L404A mutant; settings: 10 μM ligand alone
T5 construct: expressed in transfected cells; host or cells: HEK293
Experimental: as §1, §4, §2, §3, §5

[6] = 10 μM allosteric ligand, result in words

T2 sequence (P21554 whole entry Y172A): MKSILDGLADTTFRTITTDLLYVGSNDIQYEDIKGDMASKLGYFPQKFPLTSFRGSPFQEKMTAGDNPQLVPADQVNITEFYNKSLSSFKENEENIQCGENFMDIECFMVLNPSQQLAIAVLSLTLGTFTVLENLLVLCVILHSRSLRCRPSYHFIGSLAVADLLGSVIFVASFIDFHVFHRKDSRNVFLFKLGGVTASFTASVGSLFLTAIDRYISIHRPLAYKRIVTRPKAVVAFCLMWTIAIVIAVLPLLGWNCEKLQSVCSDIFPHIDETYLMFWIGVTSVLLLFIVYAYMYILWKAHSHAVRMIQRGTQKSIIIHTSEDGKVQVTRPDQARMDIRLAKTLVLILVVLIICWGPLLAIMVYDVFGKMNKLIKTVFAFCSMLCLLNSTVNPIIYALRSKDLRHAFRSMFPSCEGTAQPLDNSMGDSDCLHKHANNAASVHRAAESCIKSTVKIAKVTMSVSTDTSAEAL
T3 sequence (P21554 whole entry R148A): as the sequence (P21554 whole entry Y172A) above, with R148A, A172Y counted along it
T1 sequence (P21554 whole entry): as the sequence (P21554 whole entry Y172A) above, with A172Y counted along it
T4 sequence (P21554 whole entry F289A): as the sequence (P21554 whole entry Y172A) above, with A172Y, F289A counted along it
T5 sequence (P21554 whole entry L404A): as the sequence (P21554 whole entry Y172A) above, with A172Y, L404A counted along it

Structure (SMILES): O=[N+]([O-])C[C@@H](c1ccccc1)c1c(-c2ccccc2)[nH]c2ccccc12 [GAT229]
- Allosteric modulation of maximal CP55940-induced G protein dissociation [1, 6]: increased maximal CP55940-induced G protein dissociation
- Effect on the potency of CP55940-induced G protein dissociation [1, 6]: Neither GAT229 nor GAT228 increased the potency
- G protein dissociation, AUC of 10 μM compound (maximal response) [1]: −148.6 ± 7.2
- Allosteric agonism: G protein dissociation in the absence of an orthosteric ligand ([1]; result in words): increased wild-type G protein dissociation
- Increase in the potency of CP55940-induced G protein dissociation ([2]; 10 μM allosteric ligand): less than 0.5 log units
- G protein dissociation, AUC of 10 μM compound (maximal response) [2]: −207.0 ± 7.1
- Increase in the potency of CP55940-induced G protein dissociation ([3]; 10 μM allosteric ligand): less than 0.5 log units
- G protein dissociation, AUC of 10 μM compound (maximal response) [3]: −148.5 ± 7.7
- G protein dissociation, AUC of 10 μM compound (maximal response) [4]: −123.6 ± 5.9
- G protein dissociation, AUC of 10 μM compound (maximal response) [5]: −88.9 ± 6.2

Structure (SMILES): Cc1ccc2c(C(C[N+](=O)[O-])c3cccs3)c(-c3ccccc3)[nH]c2c1 (centres unmarked) [ZCZ011, 6-Methyl-3-(2-nitro-1-(thiophen-2-yl)ethyl)-2-phenyl-1 H-indole]
- Allosteric modulation of maximal CP55940-induced G protein dissociation [1, 6]: increased maximal CP55940-induced G protein dissociation
- G protein dissociation, AUC of 10 μM compound (maximal response) [1]: −167.3 ± 3.2
- Allosteric agonism: G protein dissociation in the absence of an orthosteric ligand ([1]; result in words): increased wild-type G protein dissociation
- G protein dissociation, AUC of 10 μM compound (maximal response) [2]: −142.1 ± 14.4
- G protein dissociation, AUC of 10 μM compound (maximal response) [3]: −150.1 ± 10.2
- G protein dissociation, AUC of 10 μM compound (maximal response) [4]: −135.5 ± 6.3
- G protein dissociation, AUC of 10 μM compound (maximal response) [5]: −85.2 ± 7.3
